{"source": "the supplement of paper PMC11208160"}
{"assay": "recombinant UMI read abundance after kanamycin selection (control-corrected) (log10(CPM+1)); higher = more efficient recombination; extreme values may be limits of the assay; sequences stand for … in AGTGCAGAGAAAATCGGCCAGTTTTCTCTGCCTGCAGTCCGCATGCCGTGGGACCCCTTGGGTTCTAACCTGTTGCCTAGATTTATGCAGCGGACTGCCTTTCTCCCAAAGTGATAAACCGG…AGGTTGGTTTCACT; site = the 11-nt donor", "method_in_brief": "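Pooled Escherichia coli screen of donor and donor-binding-loop pairs for the IS621 bridge recombinase. Each pair sits with a 12-nt UMI on a plasmid carrying a promoterless kanamycin gene. The library was co-electroporated with a target plasmid encoding a fixed target and T7-inducible recombinase, then plated with IPTG (0.07 mM) plus kanamycin, or unselected, each in two replicates. Recombinant UMIs were PCR-amplified across the donor–target junction and sequenced. Counts became CPM, averaged over replicates, scaled by control-derived factors and reported as log10(CPM+1).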"}
{"sequence": "AGTAAGACATGGACCGGTTTTCCCGGTAATCCGTATTTGCA (site AGCAAGACTTG)", "recombinant UMI read abundance (log10)": 2.39}
{"sequence": "AGTAAGACATGGACCGGTTTTCCCGGTAATCCGTATTTGCA (site AGGAAGACTTG)", "recombinant UMI read abundance (log10)": 1.31}
{"sequence": "AGTAAGACATGGACCGGTTTTCCCGGTAATCCGTATTTGCA (site AGTAAGACTTG)", "recombinant UMI read abundance (log10)": 2.57}
{"sequence": "AGTAAGACATGGACCGGTTTTCCCGGTAATCCGTATTTGCC (site AGGAAGACTTG)", "recombinant UMI read abundance (log10)": 0.00684}
{"sequence": "AGTAAGACATGGACCGGTTTTCCCGGTAATCCGTATTTGCC (site AGTAAGACTGG)", "recombinant UMI read abundance (log10)": 2.13}
{"sequence": "AGTAATCCATGGACCGGTTTTCCCGGTAATCCGTATTTGGT (site AGTAATCCTAC)", "recombinant UMI read abundance (log10)": 0.00506}
{"sequence": "AGTACAGCATGGACCGGTTTTCCCGGTAATCCGTATTTGCC (site AGTACAGCTGG)", "recombinant UMI read abundance (log10)": 2.27}
{"sequence": "AGTACTACATGGACCGGTTTTCCCGGTAATCCGTATTTGAC (site AGAACTACTGT)", "recombinant UMI read abundance (log10)": 0.731}
{"sequence": "AGTACTACATGGACCGGTTTTCCCGGTAATCCGTATTTGAC (site AGCACTACTGT)", "recombinant UMI read abundance (log10)": 0}
{"sequence": "AGTACTACATGGACCGGTTTTCCCGGTAATCCGTATTTGAC (site AGGACTACTGT)", "recombinant UMI read abundance (log10)": 1.71}
{"sequence": "AGTACTACATGGACCGGTTTTCCCGGTAATCCGTATTTGAC (site AGTACTACTGT)", "recombinant UMI read abundance (log10)": 1.28}
{"sequence": "AGTACTGCATGGACCGGTTTTCCCGGTAATCCGTATTTGGT (site AGTACTGCTAC)", "recombinant UMI read abundance (log10)": 0.745}
{"sequence": "AGTAGAACATGGACCGGTTTTCCCGGTAATCCGTATTTGAG (site AATAGAACTCT)", "recombinant UMI read abundance (log10)": 0.806}
{"sequence": "AGTAGAACATGGACCGGTTTTCCCGGTAATCCGTATTTGAG (site ACTAGAACTCT)", "recombinant UMI read abundance (log10)": 0.901}
{"sequence": "AGTAGAACATGGACCGGTTTTCCCGGTAATCCGTATTTGAG (site AGTAGAACTCT)", "recombinant UMI read abundance (log10)": 1.24}
{"sequence": "AGTAGAACATGGACCGGTTTTCCCGGTAATCCGTATTTGAG (site ATTAGAACTCT)", "recombinant UMI read abundance (log10)": 0.418}
{"sequence": "AGTAGCTCATGGACCGGTTTTCCCGGTAATCCGTATTTGGC (site AGTAGCTCTGC)", "recombinant UMI read abundance (log10)": 2.79}
{"sequence": "AGTAGTACATGGACCGGTTTTCCCGGTAATCCGTATTTGGT (site AGTAGTACTAC)", "recombinant UMI read abundance (log10)": 0.706}
{"sequence": "AGTAGTGCATGGACCGGTTTTCCCGGTAATCCGTATTTGGT (site AATAGTGCTAC)", "recombinant UMI read abundance (log10)": 0.246}
{"sequence": "AGTAGTGCATGGACCGGTTTTCCCGGTAATCCGTATTTGGT (site ACTAGTGCTAC)", "recombinant UMI read abundance (log10)": 0.699}
{"sequence": "AGTAGTGCATGGACCGGTTTTCCCGGTAATCCGTATTTGGT (site AGTAGTGCTAC)", "recombinant UMI read abundance (log10)": 1.3}
{"sequence": "AGTAGTGCATGGACCGGTTTTCCCGGTAATCCGTATTTGGT (site ATTAGTGCTAC)", "recombinant UMI read abundance (log10)": 0.00696}
{"sequence": "AGTATTTCATGGACCGGTTTTCCCGGTAATCCGTATTTGAG (site AGTATTTCTCT)", "recombinant UMI read abundance (log10)": 1.39}
{"sequence": "AGTCAGACATGGACCGGTTTTCCCGGTAATCCGTATTTGGC (site AGTCAGACTGC)", "recombinant UMI read abundance (log10)": 2.34}
{"sequence": "AGTCCGACATGGACCGGTTTTCCCGGTAATCCGTATTTGTC (site AGTCCGACTGA)", "recombinant UMI read abundance (log10)": 0.624}
{"sequence": "AGTCGTACATGGACCGGTTTTCCCGGTAATCCGTATTTGGA (site AGTCGTACTTC)", "recombinant UMI read abundance (log10)": 0.529}
{"sequence": "AGTCTGGCATGGACCGGTTTTCCCGGTAATCCGTATTTGAA (site AGTCTGGCTTT)", "recombinant UMI read abundance (log10)": 1.19}
{"sequence": "AGTCTTACATGGACCGGTTTTCCCGGTAATCCGTATTTGGT (site AGTCTTACTAC)", "recombinant UMI read abundance (log10)": 1.14}
{"sequence": "AGTGCCGCATGGACCGGTTTTCCCGGTAATCCGTATTTGGG (site AGTGCCGCTCC)", "recombinant UMI read abundance (log10)": 0.025}
